The values below are quoted from earlier work in patent US11389412B2, “Curcuminoid chlorophyllin (CHL) compositions and methods of preparation and use” (InovoBiologic Inc., priority 2017, dated 2022).

The conditions of the data set: composition of curcuminoid mixture and essential oil arturmerone, U.S. Pat. No. 7,883,728.

Structures are written as SMILES.

Turning to `COc1cc(C=CC(=O)CC(=O)C=Cc2ccc(O)c(OC)c2)ccc1O` [curcumin, 1,7bis (4-hydroxy-3-methoxy phenyl)-1,6 heptadiene-3,5-dione], the “bioavailability of curcumin in human, maximum” value is on record as “about 93 ng/g”.
